#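 Interpolation was linear, between the two tested concentrations surrounding the appropriate level; five concentrations were tested over 48 hours in 96-well plates. Abbreviation: GI50, concentration required for 50% inhibition of growth.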 The source made the active and inactive calls. Cut-off read from the data, not from the text of the source: active = GI50 up to about 1.1 µM and inactive = higher.
# Columns and labels:
# Assay in all cases: NCI-60 cell line screen, 48 h
# [1] = system: SR
# [2] = system: UACC-257
# [3] = system: SK-MEL-28
# [4] = system: PC-3
# [5] = system: CAKI-1
# [6] = system: HT-29
# [7] = system: NCI/ADR-RES
# [8] = system: LOX IMVI
# [9] = system: ACHN
# [10] = system: HCC 2998
# [11] = system: SN12C
# [12] = system: KM12
# [13] = system: HCT-15
# [14] = system: SNB-75
# [15] = system: Hs-578T
# [16] = system: UACC-62
# [17] = system: MDA-MB-231
# [18] = system: OVCAR-5
# [19] = system: NCI-H522
# [20] = system: EKVX
# [21] = system: SK-MEL-2
# [22] = system: MDA-N
# [23] = system: HCT-116
# [24] = system: DU-145
# [25] = system: RXF 393
# [26] = system: M14
# [27] = system: HOP-62
# [28] = system: SF-268
# [29] = system: OVCAR-4
# [30] = system: NCI-H23
# [31] = system: U-251
# [32] = system: UO-31
# [33] = system: OVCAR-3
# [34] = system: HOP-92
# [35] = system: MOLT-4
# [36] = system: OVCAR-8
# [37] = system: SK-MEL-5
# [38] = system: A498
# [39] = system: 786-0
# [40] = system: Malme-3M
# [41] = system: NCI-H226
# [42] = system: K562
# [43] = system: A549
# [44] = system: MDA-MB-435
# [45] = system: IGROV-1
# [46] = system: T47D
# [47] = system: BT-549
# [48] = system: TK-10
# [49] = system: SNB-19
# [50] = system: SW-620
# [51] = system: SF-295
# [52] = system: NCI-H460
# [53] = system: HL-60
# [54] = system: SF-539
# [55] = system: COLO 205
# [56] = system: CCRF-CEM
# [57] = system: SK-OV-3
# [58] = system: RPMI-8226
# [59] = system: MCF7
structure (smiles),measurement,setting,value
NCC(=O)Nc1ccccc1,GI50,[1],> 100 µM (inactive)
same,GI50,[2],> 100 µM (inactive)
same,GI50,[3],> 100 µM (inactive)
same,GI50,[4],> 100 µM (inactive)
same,GI50,[5],> 100 µM (inactive)
same,GI50,[6],> 100 µM (inactive)
same,GI50,[7],> 100 µM (inactive)
same,GI50,[8],> 100 µM (inactive)
same,GI50,[9],> 100 µM (inactive)
same,GI50,[10],> 100 µM (inactive)
same,GI50,[11],> 100 µM (inactive)
same,GI50,[12],> 100 µM (inactive)
same,GI50,[13],> 100 µM
same,GI50,[14],> 100 µM (inactive)
same,GI50,[15],> 100 µM (inactive)
same,GI50,[16],> 100 µM (inactive)
same,GI50,[17],15.5 µM (inactive)
same,GI50,[18],> 100 µM (inactive)
same,GI50,[19],> 100 µM (inactive)
same,GI50,[20],> 100 µM (inactive)
same,GI50,[21],87.7 µM (inactive)
same,GI50,[22],> 100 µM (inactive)
same,GI50,[23],> 100 µM (inactive)
same,GI50,[24],> 100 µM (inactive)
same,GI50,[25],> 100 µM (inactive)
same,GI50,[26],> 100 µM (inactive)
same,GI50,[27],> 100 µM (inactive)
same,GI50,[28],> 100 µM (inactive)
same,GI50,[29],> 100 µM (inactive)
same,GI50,[30],> 100 µM (inactive)
same,GI50,[31],> 100 µM (inactive)
same,GI50,[32],> 100 µM (inactive)
same,GI50,[33],> 100 µM (inactive)
same,GI50,[34],> 100 µM (inactive)
same,GI50,[35],> 100 µM (inactive)
same,GI50,[36],> 100 µM (inactive)
same,GI50,[37],> 100 µM (inactive)
same,GI50,[38],> 100 µM (inactive)
same,GI50,[39],> 100 µM (inactive)
same,GI50,[40],> 100 µM (inactive)
same,GI50,[41],> 100 µM (inactive)
same,GI50,[42],60.5 µM (inactive)
same,GI50,[43],> 100 µM (inactive)
same,GI50,[44],> 100 µM (inactive)
same,GI50,[45],> 100 µM (inactive)
same,GI50,[46],> 100 µM (inactive)
same,GI50,[47],> 100 µM (inactive)
same,GI50,[48],> 100 µM (inactive)
same,GI50,[49],> 100 µM (inactive)
same,GI50,[50],> 100 µM (inactive)
same,GI50,[51],> 100 µM (inactive)
same,GI50,[52],> 100 µM (inactive)
CCCc1c2c3ccccc3nc-2nc2ccccn12,GI50,[1],49.1 µM (inactive)
same,GI50,[53],35.6 µM (inactive)
same,GI50,[2],> 100 µM (inactive)
same,GI50,[3],> 100 µM (inactive)
same,GI50,[4],64.6 µM (inactive)
same,GI50,[5],> 100 µM (inactive)
same,GI50,[6],43.6 µM (inactive)
same,GI50,[7],> 100 µM (inactive)
same,GI50,[8],41.4 µM (inactive)
same,GI50,[9],46.7 µM (inactive)
same,GI50,[11],73.5 µM (inactive)
same,GI50,[54],> 100 µM (inactive)
same,GI50,[55],97.7 µM (inactive)
same,GI50,[12],49.4 µM (inactive)
same,GI50,[13],> 100 µM
same,GI50,[14],> 100 µM (inactive)
same,GI50,[15],> 100 µM (inactive)
same,GI50,[16],72.3 µM (inactive)
same,GI50,[56],> 100 µM (inactive)
same,GI50,[17],72.1 µM (inactive)
same,GI50,[18],25.2 µM (inactive)
same,GI50,[19],> 100 µM (inactive)
same,GI50,[57],> 100 µM (inactive)
same,GI50,[20],> 100 µM (inactive)
same,GI50,[21],> 100 µM (inactive)
same,GI50,[22],74.5 µM (inactive)
same,GI50,[24],> 100 µM (inactive)
same,GI50,[26],26.7 µM (inactive)
same,GI50,[27],25.4 µM (inactive)
same,GI50,[28],24.4 µM (inactive)
same,GI50,[29],50.5 µM (inactive)
same,GI50,[30],0.863 µM (active)
same,GI50,[31],63.7 µM (inactive)
same,GI50,[32],56.8 µM (inactive)
same,GI50,[58],41.9 µM (inactive)
same,GI50,[33],56 µM (inactive)
same,GI50,[34],36.5 µM (inactive)
same,GI50,[35],67.5 µM (inactive)
same,GI50,[36],71.8 µM (inactive)
same,GI50,[37],> 100 µM (inactive)
same,GI50,[38],> 100 µM (inactive)
same,GI50,[39],28.4 µM (inactive)
same,GI50,[40],61.7 µM (inactive)
same,GI50,[42],52.6 µM (inactive)
same,GI50,[43],83.4 µM (inactive)
same,GI50,[44],94.4 µM (inactive)
same,GI50,[45],63.5 µM (inactive)
same,GI50,[46],> 100 µM (inactive)
same,GI50,[47],> 100 µM (inactive)
same,GI50,[48],52.7 µM (inactive)
same,GI50,[49],> 100 µM (inactive)
same,GI50,[50],36.4 µM (inactive)
same,GI50,[51],49.8 µM (inactive)
same,GI50,[52],32.8 µM (inactive)
CC1CCC2(NC1)OC1CC3C4CC=C5CC(OC6OC(CO)C(OC7OC(C)C(O)C(O)C7O)C(O)C6OC6OC(C)C(O)C(O)C6O)CCC5(C)C4CCC3(C)C1C2C (centres undefined),GI50,[1],3.08 µM (inactive)
same,GI50,[53],4.41 µM (inactive)
same,GI50,[2],2.64 µM (inactive)
same,GI50,[3],1.91 µM (inactive)
same,GI50,[4],2.09 µM (inactive)
same,GI50,[5],4.36 µM (inactive)
same,GI50,[6],5.69 µM (inactive)
same,GI50,[8],5.79 µM (inactive)
same,GI50,[9],3.91 µM (inactive)
same,GI50,[10],2.16 µM (inactive)
same,GI50,[11],2.24 µM (inactive)
same,GI50,[54],3.3 µM (inactive)
same,GI50,[55],8.63 µM (inactive)
same,GI50,[12],3.46 µM (inactive)
same,GI50,[13],6.67 µM
same,GI50,[14],2.5 µM (inactive)
same,GI50,[15],3.87 µM (inactive)
same,GI50,[16],3.02 µM (inactive)
same,GI50,[56],15 µM (inactive)
same,GI50,[17],3.78 µM (inactive)
same,GI50,[18],5.66 µM (inactive)
same,GI50,[19],1.7 µM (inactive)
same,GI50,[57],7.18 µM (inactive)
same,GI50,[20],2.5 µM (inactive)
same,GI50,[21],3.63 µM (inactive)
same,GI50,[59],2.32 µM (inactive)
same,GI50,[22],2.37 µM (inactive)
same,GI50,[23],2.31 µM (inactive)
same,GI50,[24],4 µM (inactive)
same,GI50,[25],4.05 µM (inactive)
same,GI50,[26],2.39 µM (inactive)
same,GI50,[27],4.09 µM (inactive)
same,GI50,[28],2 µM (inactive)
same,GI50,[29],2.54 µM (inactive)
same,GI50,[30],12.2 µM (inactive)
same,GI50,[31],2.84 µM (inactive)
same,GI50,[32],7.45 µM (inactive)
same,GI50,[58],12.8 µM (inactive)
same,GI50,[33],1.96 µM (inactive)
same,GI50,[34],3.69 µM (inactive)
same,GI50,[35],8.55 µM (inactive)
same,GI50,[36],2.88 µM (inactive)
same,GI50,[37],5.58 µM (inactive)
same,GI50,[38],5.74 µM (inactive)
same,GI50,[39],1.99 µM (inactive)
same,GI50,[40],2.46 µM (inactive)
same,GI50,[41],2.46 µM (inactive)
same,GI50,[42],4.11 µM (inactive)
same,GI50,[43],3.15 µM (inactive)
same,GI50,[44],2.04 µM (inactive)
same,GI50,[45],5.82 µM (inactive)
same,GI50,[46],7.64 µM (inactive)
same,GI50,[47],15.6 µM (inactive)
same,GI50,[48],5.31 µM (inactive)
same,GI50,[49],11.1 µM (inactive)
same,GI50,[50],4.4 µM (inactive)
same,GI50,[51],2.08 µM (inactive)
same,GI50,[52],3.55 µM (inactive)
